What was measured:
Assay type in all cases: biochemical
[1] = target: T1, VvGT14a (Vitis vinifera, UniProt F6H0R6); settings: for Km: monoterpenols at constant UDP-glucose […], UDP-glucose at fixed geraniol 100 µM, Tris-HCl pH 8.5, 30 °C; for kcat: pH 8.5
[2] = target: T1, VvGT14a; assay: Enantioselectivity by chiral phase SPME-GC-MS after hydrolysis of the formed glucoside; settings: racemic substrate, prolonged incubation (24 h), aglycone liberated by hydrolysis
Procedure: (§1) To determine the enantioselectivity of VvGT14 and VvGT15 the enantiomeric ratio of glucosidically bound citronellol and linalool was determined by enantioselective GC-MS. Following the incubation, residual citronellol and linalool were completely removed by extraction with dichloromethane. Citronellyl ß-D-glucoside which remained in the aqueous phase was hydrolyzed by HCl (2 mL, 0.1 M, pH 1) for one hour at 100 °C to release citronellol (Skouroumounis and Sefton, 2000). In case of linalyl ß-D-glucoside an enzymatic hydrolysis (AR 2000, citric acid buffer pH 4, 24 h) was applied due to the instability of linalool in acid solutions (Williams et al., 1982). […] After hydrolysis, citronellol and linalool were analyzed by SPME-GC-MS as described above.
(§2) GC-MS analysis was performed with a Varian GC-450 coupled to a Varian MS-240 ion-trap employing a Phenomenex Zebron ZB-WAXplus column (30 m x 0.25 mm x 0.25 µm, Aschaffenburg, Germany). Helium flow rate was 1 mL/min. The analysis was carried out in split mode (liquid injections) or splitless mode (SPME measurements) with 220 °C injector temperature. EI (electron impact ionization)-MS spectra were recorded from m/z 40 to 300 (ionization energy 70 eV; trap temperature 170 °C). The oven temperature program was 60 °C (3 min), 10 °C/min up to 250 °C (5 min). In case of SPME measurements, liberated aglycones were isolated for 10 min at 60°C using a fiber coated with a 85 µm film of polyacrylate (SUPELCO, Bellefonte, USA). After extraction the SPME fiber was desorbed for 10 min at 250°C in the injection port of the GC-MS system and the column oven program was carried out as described above. Enantioselective GC-MS analysis was performed with a Varian GC-450 coupled to a Varian MS-240 ion-trap. The column was a DiAcß (heptakis-(2,3-di-O-acetyl-6-O-tert.-butyldimethylsilyl)-ß-cyclodextrin), 26 m x 0.32 mm i.d. with a 0.1 µm film. […] GC-MS measurements were recorded in full scan mode. Selected ion monitoring (SIM) mode was used for quantification.

[3] = target: T1, VvGT14a; assay: Activity based profiling using a physiologic aglycone library (radio-TLC, GC-MS); settings: Figure 7
Procedure: For the preparation of aglycone extracts 50 g (fresh weight) grape skins or 4 g (fresh weight) inflorescences of Gewurztraminer Gm 11-18 were ground to a fine powder in liquid nitrogen. The isolation of glycosides was carried out as described above (see metabolite analysis). The methanolic fraction, which was obtained after SPE, was enzymatically hydrolysed. Therefore, the dried sample was dissolved in citric-acid buffer (0.1 M, pH 4), 50 mg AR 2000 (an enzyme preparation with glucosidase activity prepared from Aspergillus niger; DSM Food Specialties Beverage Ingredients, Delft, Netherlands) was added and incubated for 24 h with exclusion of light. The liberated aglycones were extracted by 20 mL methyl-tert-butyl ether and the organic phase was reduced to 1000µL using a gentle stream of nitrogen.
Aliquots of this aglycone extract were incubated with UDP-glucose and various VvGT-enzymes. Optimum conditions at 30 °C for 24 hours were applied. Each solution contained 100 µL purified enzyme, 100-150 µL Tris-HCl buffer (100 mM, pH7.5 or 8.5, 10 mM 2-mercaptoethanol), 37 pmol UDP-[^14C]glucose (0.01 µCi) and 50-100 µL extract (dissolved in methyl-tert-butylether). The buffer was mixed with the extract and the organic solvent was gently vaporized with nitrogen. The missing volume was adjusted with buffer before the enzyme was added. The reaction was stopped by adding 1 µL 24% trichloroacetic acid and extracted with 500 µL ethyl acetate. After termination of the reaction free aglycones, which were not converted by VvGT14 and VvGT15, were measured via SPME-(Solid Phase Microextraction)-GC-MS. These residual, free aglycones were completely removed by extraction with dichloromethane. Enzymatically formed glucosides were extracted by ethyl acetate, which was removed under nitrogen. The residue was dissolved in methanol and analyzed by LC-MS to detect the generated monoterpenol glucosides. Enzymatic hydrolysis of the glucosides was performed using AR 2000 and 2 mL citric-acid-buffer. After hydrolysis, a 100 µL aliquot was used to detect volatile aglycones via SPME-GC-MS. The remaining solution was extracted with methyl-tert-butyl ether and reduced under nitrogen to approximately 200 µL. One µL were measured by GC-MS via liquid injection.
Assays containing UDP-[^14C]glucose and aglycone libraries or substrates were performed as described above and subsequently extracted with 500 µL ethyl acetate. The organic solvent was vaporized and the pellet was re-suspended in 10 µL methanol and was applied on Silica Gel 60 F254 plates (Merck, Darmstadt, Germany). The dried plates were developed in a solvent system chloroform:acetic acid:water (50/45/5, v:v:v). Plates were dried and analyzed by digital autoradiograph (digital autoradiograph, EG&G Berthold, Wildbad, Germany).
An aglycone library of the two tissues was obtained by enzymatic hydrolysis of the glycosides followed by liquid-liquid extraction of the released alcohols and acids. […] The formed glycosides were separated by thin layer chromatography (TLC) and visualized by radiodetection whereas identification could be achieved by LC-MS and NMR analysis and, after hydrolysis, by GC-MS and LC-MS (Figure 6).

[4] = target: T1, VvGT14a; assay: Substrate screening, radiochemical activity assay with UDP-[14C]glucose; settings: for conversion of putative substrate (in words): substrate screening, Figure 3
Procedure: (§3) In the initial screening, each reaction mixture (200 µL in total) contained Tris-HCl buffer (100 mM, pH 8, 10 mM 2-mercaptoethanol), 37 pmol UDP-[^14C]glucose (0.01 µCi, Biotrend, Köln, Germany), substrate (50 µL of a 1 mg/mL stock solution) and purified protein (0.5-0.8 µg/µL). The reaction mixture was incubated at 30 °C for 18.5 hours. The assays were stopped by adding 1 µL 24% trichloroacetic acid and extracted with 500 µL water-saturated 1-butanol. The organic phase was mixed with 2 mL Pro Flow P+ cocktail (Meridian Biotechnologies Ltd., Epsom, UK) and radioactivity was determined by liquid scintillation counting (LSC, Tri-Carb 2800TR, Perkin Elmer, Waltham MA, USA). Additionally, negative controls without substrate were performed.
(§4) After determining the optimal conditions for the best substrate of each gene, the substrate screening was repeated under these conditions.
(§5) The alleles of VvGT14a-c, 15a-c and 16 were isolated from V. vinifera cultivars and cloned in the expression vector pGEX-4T-1. The recombinant proteins were expressed with an N-terminal GST-tag, affinity purified and verified by SDS-PAGE and Western Blot using GST-specific antibody. Enzyme activity studies were performed with UDP-[^14C]glucose and various putative substrates (terpenols, flavonoids and different mono-alcohols) that are known to be glycosidically bound and present in grapes (Gunata et al., 1988).

[5] = target: T2, VvGT15a (Vitis vinifera, UniProt F6GUW0); assay: Enantioselectivity by chiral phase SPME-GC-MS after hydrolysis of the formed glucoside; settings: racemic substrate, prolonged incubation (24 h), aglycone liberated by acid hydrolysis
Procedure: as §1, §2

[6] = target: VvGT16 (Vitis vinifera, UniProt F6HTJ4); assay: Substrate screening, radiochemical activity assay with UDP-[14C]glucose; settings: substrate screening, Figure 3
Procedure: as §3, §4, §5

[7] = target: VvGT15b (Vitis vinifera, UniProt F6GUW0); assay: as above; settings: substrate screening, Figure 3
Procedure: as §3, §4, §5

[8] = target: VvGT15c (Vitis vinifera, UniProt F6GUW0); assay: as above
Procedure: as §3, §4, §5

[9] = target: T2, VvGT15a; assay: as above; settings: substrate screening, Figure 3
Procedure: as §3, §4, §5

[10] = citronellol enantiomers, Figure 12, highest level of extractable radioactivity = 100 %

T1 sequence (F6H0R6 entry or part of it): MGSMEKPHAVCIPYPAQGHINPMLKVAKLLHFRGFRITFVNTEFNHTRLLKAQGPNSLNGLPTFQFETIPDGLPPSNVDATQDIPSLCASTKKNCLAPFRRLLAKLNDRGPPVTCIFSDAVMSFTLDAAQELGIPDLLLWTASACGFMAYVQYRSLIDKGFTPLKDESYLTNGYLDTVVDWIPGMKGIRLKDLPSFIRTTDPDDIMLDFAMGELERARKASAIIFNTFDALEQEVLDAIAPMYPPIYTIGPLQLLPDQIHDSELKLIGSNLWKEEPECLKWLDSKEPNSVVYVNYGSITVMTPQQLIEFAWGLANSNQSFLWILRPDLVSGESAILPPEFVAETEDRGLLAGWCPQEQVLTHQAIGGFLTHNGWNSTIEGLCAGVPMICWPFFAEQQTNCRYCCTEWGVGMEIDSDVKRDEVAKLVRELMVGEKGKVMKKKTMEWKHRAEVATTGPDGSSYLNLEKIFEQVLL
Sequence of VvGT15c (F6GUW0 entry or part of it): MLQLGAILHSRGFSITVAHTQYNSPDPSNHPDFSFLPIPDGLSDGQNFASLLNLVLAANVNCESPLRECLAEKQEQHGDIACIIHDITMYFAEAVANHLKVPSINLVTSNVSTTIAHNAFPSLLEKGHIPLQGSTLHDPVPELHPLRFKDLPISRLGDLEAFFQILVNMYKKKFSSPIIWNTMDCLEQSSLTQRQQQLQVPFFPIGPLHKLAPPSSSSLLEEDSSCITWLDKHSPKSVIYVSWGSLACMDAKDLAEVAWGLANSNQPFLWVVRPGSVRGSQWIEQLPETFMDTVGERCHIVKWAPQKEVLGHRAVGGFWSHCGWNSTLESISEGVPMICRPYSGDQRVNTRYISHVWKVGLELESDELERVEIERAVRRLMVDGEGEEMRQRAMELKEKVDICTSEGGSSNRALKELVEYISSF
T2 sequence (F6GUW0 entry or part of it): as above
Sequence of VvGT15b (F6GUW0 entry or part of it): as above
Sequence of VvGT16 (F6HTJ4 entry or part of it): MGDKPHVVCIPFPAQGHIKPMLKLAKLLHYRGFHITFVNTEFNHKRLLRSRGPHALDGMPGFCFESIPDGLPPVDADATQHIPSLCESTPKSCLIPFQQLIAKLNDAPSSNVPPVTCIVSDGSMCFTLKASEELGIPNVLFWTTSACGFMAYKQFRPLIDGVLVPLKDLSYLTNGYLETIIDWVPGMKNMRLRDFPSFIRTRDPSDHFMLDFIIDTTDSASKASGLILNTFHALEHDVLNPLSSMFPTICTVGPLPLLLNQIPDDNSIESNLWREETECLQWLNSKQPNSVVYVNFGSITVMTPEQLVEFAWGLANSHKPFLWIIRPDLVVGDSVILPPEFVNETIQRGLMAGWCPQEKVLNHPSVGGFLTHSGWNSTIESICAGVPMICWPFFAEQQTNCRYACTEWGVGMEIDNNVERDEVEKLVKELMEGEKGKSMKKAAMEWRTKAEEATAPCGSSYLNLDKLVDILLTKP

| Compound | Km [1] [µM] | kcat [1] [s⁻¹] | enantiomeric preference (in words) [2] | aglycone liberated by enzymatic hydrolysis of the glucosides formed from the grape skin aglycone library (in words) [3] | conversion of putative substrate (in words) [4] | enantiomeric preference (in words) [5] | conversion of putative substrate (in words) [6] | conversion of putative substrate (in words) [7] | relative specific activity [8, 10] [%] | conversion of putative substrate (in words) ([8]; substrate screening, Figure 3) | relative specific activity [4, 10] [%] | conversion of putative substrate (in words) [9] |
| --- | --- | --- | --- | --- | --- | --- | --- | --- | --- | --- | --- | --- |
| C=CC(C)(O)CCC=C(C)C (racemic) [linalool (rac), (R,S)-3,7-dimethyl-1,6-octadien-3-ol] | 47 ± 0.1 | 0.0003 | slight enrichment of the R-enantiomer | remarkable quantities | catalytic activity |  |  |  |  |  |  |  |
| CC(C)=CCCC(C)CCO (racemic) [citronellol (rac), (R,S)-3,7-dimethyl-6-octen-1-ol] | 9 ± 0.3 | 0.02 | no enantio-discrimination | remarkable quantities | preferred | no enantio-discrimination | transformed | glucosylated primarily | 100 | glucosylated primarily | 100 | glucosylated primarily |
